Results taken from US7612079B2, “2,6,9-substituted purine derivatives and their use in the treatment of proliferative disorders” (Cyclacel Limited, priority 2001, dated 2009).

Experiments:
[1] = target: T1, cyclic AMP-dependent kinase (PKA) catalytic subunit (Homo sapiens, UniProt P17612); experiment: PKA kinase assay (Kemptide phosphorylation); type: biochemical; conditions: Table 2; read-out: Kinase inhibition PKA IC50
T1 construct: purchased Calbiochem 539487
Procedure: The reaction mixture (total volume 50 μl) consisted of 20 mM MOPS, pH 7.2, 25 mM β-glycerophosphate, 5 mM EGTA, 1 mM DTT, 1 mM Na3VO4, 10 mM MgCl2, 100 μM ATP, 0.2 μCi [γ-^32P]-ATP.

mouse ERK-2 = target: T2, mouse ERK-2 (Mus musculus, UniProt P63085); experiment: ERK-2 kinase assay (MBP phosphorylation); type: biochemical; conditions: Table 2; read-out: Kinase inhibition ERK2 IC50
T2 construct: purchased Upstate Biotechnologies
Procedure: ERK-2 kinase activity was measured by the incorporation of radioactive phosphate into myelin basic protein (MBP), catalysed by purified mouse ERK-2 (Upstate Biotechnologies). The reaction mixture (total volume 50 μL) consisted of 20 mM MOPS, pH 7.0,25 mM β-glycerophosphate, 5 mM EGTA, 1 mM DTT, 1 mM Na3VO4, 10 mM MgCl2, 100 μM ATP, 0.2 μCi [γ-^32P]-ATP.

A2780 = experiment: 72-h MTT proliferation assay, A2780; type: cell-based; conditions: Homo sapiens, read-out: IC50 Cell line A2780
Excerpt: (§1) Selected compounds from the above examples were subjected to a standard cellular proliferation assay using seven different human tumour cell lines: A2780, A278CisF, CH1, CH1DoxR, HCT116, HT29 and KM12. […] Human tumour cell lines were obtained from the ATCC (American Type Culture Collection, 10801 University Boulevard, Manessas, Va. 20110-2209, USA). The results are shown in Table 1, together with the average IC50 over the seven different cell lines.

A2780 CisR = experiment: 72-h MTT proliferation assay, A2780 CisR; type: cell-based; conditions: Homo sapiens, A2780cisR, read-out: IC50 Cell line A2780 CisR
Excerpt: as §1

CH1 = experiment: 72-h MTT proliferation assay, CH1; type: cell-based; conditions: Homo sapiens, read-out: IC50 Cell line CH1
Excerpt: as §1

CH1DoxR = experiment: 72-h MTT proliferation assay, CH1DoxR; type: cell-based; conditions: Homo sapiens, read-out: IC50 Cell line CH1DoxR
Excerpt: as §1

HCT116 = experiment: 72-h MTT proliferation assay, HCT116; type: cell-based; conditions: Homo sapiens, HCT-116, read-out: IC50 Cell line HCT116
Excerpt: as §1

HT29 = experiment: 72-h MTT proliferation assay, HT29; type: cell-based; conditions: Homo sapiens, HT-29, read-out: IC50 Cell line HT29
Excerpt: as §1

KM12 = experiment: 72-h MTT proliferation assay, KM12; type: cell-based; conditions: Homo sapiens, read-out: IC50 Cell line KM12
Excerpt: as §1

[2] = tested on: seven different human tumour cell lines: A2780, A278CisF, CH1, CH1DoxR, HCT116, HT29 and KM12; experiment: 72-h MTT proliferation assay, average over seven cell lines; type: cell-based; conditions: read-out: IC50 Cell line Average
Excerpt: Selected compounds from the above examples were subjected to a standard cellular proliferation assay using seven different human tumour cell lines: A2780, A278CisF, CH1, CH1DoxR, HCT116, HT29 and KM12.

A549, HT29, Saos-2 = experiment: In vitro anti-proliferative activity, 72-h MTT, A549, HT29, Saos-2; type: cell-based; conditions: read-out: In vitro anti-proliferative activity (72-h MTT IC50), Cell lines: A549, HT29, Saos-2
Aqueous solubility = type: physicochemical; conditions: remark in Table 1; versus Roscovitine
Excerpt: […]. […] […]

CDK4/cyclin D1 = CDK4/cyclin D1 (Homo sapiens, UniProt P11802); experiment: CDK4/cyclin D1 kinase assay (GST-Rb phosphorylation); type: biochemical; conditions: Table 2; read-out: Kinase inhibition CDK4/cyclin D1 IC50
Procedure: Assays for CDK2/cyclin E kinase, CDK1/cyclin B and CDK4/cyclin D1 may be carried out by monitoring phosphorylation of GST-Rb in an appropriate system. […] The phosphorylation reaction mixture (total volume 40 μl) consisted of 50 mM HEPES pH 7.4, 20 mM MgCl2, 5 mM EGTA, 2 mM DTT, 20 mM β-glycerophosphate, 2 mM NaF, 1 mM Na3VO4, Protease Inhibitors Cocktail (Sigma, see above), BSA 0.5 mg/ml, 1 μg purified enzyme complex, 10 μl of GST-Rb-Sepharose-beads, 100 μM ATP, 0.2 μCi ^32P-ATP. The reaction is carried out for 30 min at 30° C. at constant shaking. At the end of this period 100 μl of 50 mM HEPES, pH 7.4 and 1 mM ATP is added to each well and the total volume transferred onto GFC filtered plate. The plate is washed 5 times with 200 μl of 50 mM HEPES, pH 7.4 and 1 mM ATP. To each well was added 50 μl scintillant liquid and the radioactivity of the samples is measured on Scintilation counter (Topcount, HP). The IC50 values of different peptides were calculated using GraFit software.

CDK7/cyclin H = CDK7/cyclin H (Homo sapiens, UniProt P50613); experiment: CDK7/cyclin H kinase inhibition; type: biochemical; conditions: Table 2
[3] = Pharmacokinetic analysis in mice

Chain of CDK7/cyclin H (P50613 whole entry, species assumed): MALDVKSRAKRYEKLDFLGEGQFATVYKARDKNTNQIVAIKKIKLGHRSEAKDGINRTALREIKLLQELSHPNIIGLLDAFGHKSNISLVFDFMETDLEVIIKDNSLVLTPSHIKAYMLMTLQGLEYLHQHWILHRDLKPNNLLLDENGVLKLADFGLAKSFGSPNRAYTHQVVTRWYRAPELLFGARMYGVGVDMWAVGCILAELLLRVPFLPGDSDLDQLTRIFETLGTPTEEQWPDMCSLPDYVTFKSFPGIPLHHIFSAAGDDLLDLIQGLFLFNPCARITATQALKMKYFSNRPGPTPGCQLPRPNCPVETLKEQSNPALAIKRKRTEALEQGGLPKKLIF
Chain of CDK7/cyclin H (P51946 whole entry partner, species assumed): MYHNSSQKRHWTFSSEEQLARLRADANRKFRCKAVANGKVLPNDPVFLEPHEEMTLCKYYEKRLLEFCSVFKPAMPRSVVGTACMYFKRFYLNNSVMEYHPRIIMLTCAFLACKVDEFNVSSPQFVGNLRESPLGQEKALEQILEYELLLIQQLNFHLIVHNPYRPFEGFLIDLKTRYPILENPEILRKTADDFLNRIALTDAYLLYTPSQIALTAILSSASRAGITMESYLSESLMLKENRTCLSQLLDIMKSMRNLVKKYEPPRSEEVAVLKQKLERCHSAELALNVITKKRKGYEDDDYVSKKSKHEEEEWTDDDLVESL
T2 sequence (P63085 whole entry): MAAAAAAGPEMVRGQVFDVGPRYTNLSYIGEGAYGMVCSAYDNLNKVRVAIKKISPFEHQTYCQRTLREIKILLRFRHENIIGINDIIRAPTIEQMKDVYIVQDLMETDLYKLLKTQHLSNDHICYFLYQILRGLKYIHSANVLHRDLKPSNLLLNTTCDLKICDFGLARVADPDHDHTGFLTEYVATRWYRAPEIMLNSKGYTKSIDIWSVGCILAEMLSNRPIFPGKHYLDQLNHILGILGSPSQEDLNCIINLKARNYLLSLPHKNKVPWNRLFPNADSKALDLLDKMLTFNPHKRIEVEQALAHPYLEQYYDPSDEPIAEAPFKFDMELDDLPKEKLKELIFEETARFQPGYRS
Chain of CDK4/cyclin D1 (P11802 whole entry, species assumed): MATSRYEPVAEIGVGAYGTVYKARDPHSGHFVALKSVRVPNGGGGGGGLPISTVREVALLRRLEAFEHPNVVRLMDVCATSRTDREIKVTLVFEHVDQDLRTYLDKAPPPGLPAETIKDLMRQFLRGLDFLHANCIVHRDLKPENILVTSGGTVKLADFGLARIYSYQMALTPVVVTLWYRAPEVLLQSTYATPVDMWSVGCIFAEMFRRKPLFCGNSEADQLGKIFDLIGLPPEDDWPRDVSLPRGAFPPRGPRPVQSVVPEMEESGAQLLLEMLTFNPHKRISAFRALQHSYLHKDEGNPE
Chain of CDK4/cyclin D1 (P24385 whole entry partner, species assumed): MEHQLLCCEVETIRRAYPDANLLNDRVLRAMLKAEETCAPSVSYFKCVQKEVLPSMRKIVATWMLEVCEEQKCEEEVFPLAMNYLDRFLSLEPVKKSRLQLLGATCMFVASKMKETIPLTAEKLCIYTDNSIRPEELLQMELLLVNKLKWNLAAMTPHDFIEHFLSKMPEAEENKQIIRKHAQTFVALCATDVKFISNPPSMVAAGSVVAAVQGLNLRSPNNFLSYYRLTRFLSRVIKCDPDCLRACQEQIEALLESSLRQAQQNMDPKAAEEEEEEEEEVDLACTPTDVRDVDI

| IC50 [1] [µM] | IC50 (mouse ERK-2) [µM] | IC50 (A2780) [µM] | IC50 (A2780 CisR) [µM] | IC50 (HCT116) [µM] | IC50 (HT29) [µM] | IC50 [2] [µM] | IC50 (A549, HT29, Saos-2) [µM] | PK remark: aqueous solubility (Aqueous solubility) | melting point [°C] | IC50 (CDK4/cyclin D1) [µM] | IC50 (CDK7/cyclin H) [nM] | SMILES | IC50 (CH1) [µM] | IC50 (CH1DoxR) [µM] | IC50 (KM12) [µM] | AUC ([3]; mice, comparative value) [nh-h/mL] | half-life ([3]; mouse, in vivo) [min] |
| --- | --- | --- | --- | --- | --- | --- | --- | --- | --- | --- | --- | --- | --- | --- | --- | --- | --- |
| > 50 | 9.5 | 22 | 28 | 26 | 54 | 31 | 4.5 | Improved aqueous solubility | 30 to 35 | – | – | CC[C@H](CO)Nc1nc(NCc2ccccn2)c2ncn(C(C)C)c2n1 [Example 5, (R)-2-{9-Isopropyl-6-[(pyridin-2:ylmethyl)-amino]-9H-purin-2:ylamino}-butan-1-ol] | 26 | 23 | 38 | – | – |
| > 50 | – | 23 | 22 | 10 | 23 | 17.3 | 17 | Improved aqueous solubility | 105 to 106 | 30 | 740 | CC[C@H](CO)Nc1nc(NCc2ccncc2)c2ncn(C(C)C)c2n1 [Example 6, (R)-2-{9-Isopropyl-6-[(pyridin-4-ylmethyl)-amino]-9H-purin-2-ylamino}-butan-1-ol] | 8.2 | 28 | 7 | – | – |
| – | – | – | – | – | – | – | – | – | – | – | – | CC[C@H](CO)Nc1nc(NCc2ccccc2)c2ncn(C(C)C)c2n1 [Roscovitine] | – | – | – | 75454 | 162 |
